Laboratory results: US9255094B2, “Pyrido[4,3-B]indoles and methods of use” (Medivation Technologies, Inc., priority 2009, dated 2016)

What was measured:
[1] = target: T1, human recombinant adrenergic α1D receptor (Homo sapiens, UniProt P25100); experiment: Adrenergic α1D radioligand binding assay ([3H]Prozosin); conditions: compound at 0.1 μM; 0.6 nM [3H]Prozosin; HEK-293 cells; read-out: Percent Inhibition of ligand binding, Adrenergic (0.1 μM) a1D
T1 construct: expressed in transfected cells; host or cells: human embryonic kidney (HEK-293) cells
T1 sequence (P25100 1-572): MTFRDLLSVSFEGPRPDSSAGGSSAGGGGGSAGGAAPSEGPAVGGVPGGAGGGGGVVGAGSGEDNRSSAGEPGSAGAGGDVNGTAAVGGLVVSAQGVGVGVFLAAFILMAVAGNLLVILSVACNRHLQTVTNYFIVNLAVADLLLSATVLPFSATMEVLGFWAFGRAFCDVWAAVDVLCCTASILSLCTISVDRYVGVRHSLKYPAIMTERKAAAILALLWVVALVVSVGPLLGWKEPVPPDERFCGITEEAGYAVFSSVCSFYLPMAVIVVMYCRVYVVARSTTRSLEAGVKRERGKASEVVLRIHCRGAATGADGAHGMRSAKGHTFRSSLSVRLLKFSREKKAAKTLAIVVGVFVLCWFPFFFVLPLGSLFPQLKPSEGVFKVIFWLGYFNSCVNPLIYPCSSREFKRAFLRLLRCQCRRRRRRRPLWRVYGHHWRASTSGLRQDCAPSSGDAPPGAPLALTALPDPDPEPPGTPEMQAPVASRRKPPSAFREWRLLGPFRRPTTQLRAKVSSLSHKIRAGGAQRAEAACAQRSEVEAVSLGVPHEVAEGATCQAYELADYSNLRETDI
Method: Compounds of invention were incubated with 0.6 nM [^3H]Prozosin for 60 min at 25° C. Non-specific binding was estimated in the presence of 10 μM phentolamine Receptor proteins were filtered and washed, the filters were then counted to determine [^3H]Prozosin specifically bound.

[2] = target: T2, rat adrenergic α1A receptor (Rattus norvegicus, UniProt P43140); experiment: Adrenergic α1A radioligand binding assay ([3H]Prozosin); conditions: compound at 0.1 μM; 0.25 nM [3H]Prozosin; Wistar Rat submaxillary glands; read-out: Percent Inhibition of ligand binding, Adrenergic (0.1 μM) a1A
T2 construct: from tissue; host or cells: Wistar Rat submaxillary glands
T2 sequence (P43140 1-466): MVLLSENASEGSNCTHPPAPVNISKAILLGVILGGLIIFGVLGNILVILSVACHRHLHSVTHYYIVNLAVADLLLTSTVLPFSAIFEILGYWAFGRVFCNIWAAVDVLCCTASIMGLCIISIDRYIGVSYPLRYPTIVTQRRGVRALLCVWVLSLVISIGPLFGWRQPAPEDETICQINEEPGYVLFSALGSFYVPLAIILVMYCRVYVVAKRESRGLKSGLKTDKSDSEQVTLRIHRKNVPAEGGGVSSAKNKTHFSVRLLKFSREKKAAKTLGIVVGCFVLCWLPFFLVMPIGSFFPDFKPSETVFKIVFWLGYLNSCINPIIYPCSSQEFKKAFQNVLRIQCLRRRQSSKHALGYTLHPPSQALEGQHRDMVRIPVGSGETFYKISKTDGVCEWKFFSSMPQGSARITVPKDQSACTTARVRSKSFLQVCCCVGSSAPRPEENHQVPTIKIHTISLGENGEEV
Method: To evaluate in radioligand binding assays the activity of compounds of the invention, rat adrenergic α1A receptor obtained from Wistar Rat submaxillary glands (Michel, A. D. et al., Br. J. Pharmacol. 98:883, 1989) in a modified Tris-HCl buffer (50 mM Tris-HCl buffer, pH 7.4, 0.5 mM EDTA) is used. Compounds of the invention are incubated with 0.25 nM [^3H]Prozosin for 60 min at 25° C. Non-specific binding is estimated in the presence of 10 μM phentolamine. Receptor proteins are filtered and washed, the filters are then counted to determine [^3H]Prozosin specifically bound. Compounds of the invention are screened at 1 μM or lower, using 1% DMSO as vehicle. Compounds of the invention are tested in this biochemical assay and percent inhibition of specific binding is determined.

[3] = target: human recombinant dopamine D2L receptor (Homo sapiens, UniProt P14416); experiment: Dopamine D2L radioligand binding assay ([3H]Spiperone); conditions: compound at 1 μM, 0.16 nM [3H]Spiperone, CHO cells, read-out: Percent Inhibition of ligand binding, Dopamine (1μM)
Sequence of human recombinant dopamine D2L receptor (P14416 whole entry): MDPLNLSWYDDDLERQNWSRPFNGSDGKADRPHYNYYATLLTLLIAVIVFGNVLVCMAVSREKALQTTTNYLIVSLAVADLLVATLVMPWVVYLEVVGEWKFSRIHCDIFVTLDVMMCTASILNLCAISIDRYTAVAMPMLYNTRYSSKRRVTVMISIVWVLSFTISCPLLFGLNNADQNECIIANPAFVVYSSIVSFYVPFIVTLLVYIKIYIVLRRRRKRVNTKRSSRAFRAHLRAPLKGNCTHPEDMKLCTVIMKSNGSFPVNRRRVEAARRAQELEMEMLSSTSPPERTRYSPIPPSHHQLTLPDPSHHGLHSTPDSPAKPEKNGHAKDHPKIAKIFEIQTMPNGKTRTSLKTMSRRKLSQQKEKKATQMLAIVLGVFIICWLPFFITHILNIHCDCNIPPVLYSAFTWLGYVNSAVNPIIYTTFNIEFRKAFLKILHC
In short: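 Test compounds at 1 μM or lower (1% DMSO vehicle) incubated with 0.16 nM [3H]Spiperone for 120 min at 25 °C; nonspecific binding defined with 10 μM haloperidol. Filtration and counting of bound radioligand; values given as percent inhibition of specific binding.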

[4] = target: T3, human recombinant serotonin (5-Hydroxytryptamine) 5-HT2A receptor (Homo sapiens, UniProt P28223); experiment: Serotonin 5-HT2A radioligand binding assay ([3H]Ketanserin); conditions: compound at 0.1 μM; 0.5 nM [3H]Ketanserin; CHO-K1 cells; read-out: Percent Inhibition of ligand binding, Serotonin (0.1 μM) 5-HT2A
T3 construct: expressed in transfected cells; host or cells: Chinese hamster ovary (CHO-K1) cells
T3 sequence (P28223 whole entry): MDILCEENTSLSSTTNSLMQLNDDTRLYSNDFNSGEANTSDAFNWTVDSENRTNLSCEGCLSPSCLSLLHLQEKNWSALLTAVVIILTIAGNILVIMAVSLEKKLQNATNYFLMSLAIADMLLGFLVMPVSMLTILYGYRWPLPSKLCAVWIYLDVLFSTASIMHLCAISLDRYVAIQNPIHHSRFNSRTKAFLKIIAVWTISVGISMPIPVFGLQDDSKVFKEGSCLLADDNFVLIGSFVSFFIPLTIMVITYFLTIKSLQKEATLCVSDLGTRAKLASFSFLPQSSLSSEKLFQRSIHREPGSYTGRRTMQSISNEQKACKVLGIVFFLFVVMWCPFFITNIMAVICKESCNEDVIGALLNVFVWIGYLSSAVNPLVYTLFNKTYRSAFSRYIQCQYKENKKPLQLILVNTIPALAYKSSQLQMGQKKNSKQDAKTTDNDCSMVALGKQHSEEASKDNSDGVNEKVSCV
Method: Compounds of the invention were incubated with 0.5 nM [^3H]Ketanserin for 60 min at 25° C. Non-specific binding was estimated in the presence of 1 μM Mianserin. Receptor proteins were filtered and washed, the filters were then counted to determine [^3H]Ketanserin specifically bound. Compounds were screened at 1 μM or lower, using 1% DMSO as vehicle. Biochemical assay results are presented as the percent inhibition of specific binding in Table 4.

[5] = target: T4, human recombinant serotonin (5-Hydroxytryptamine) 5-HT6 receptor (Homo sapiens, UniProt P50406); experiment: Serotonin 5-HT6 radioligand binding assay ([3H]LSD); conditions: compound at 0.1 μM, HeLa cells, read-out: Percent Inhibition of ligand binding, Serotonin (0.1 μM) 5-HT6
T4 construct: expressed in transfected cells; host or cells: human HeLa cells
T4 sequence (P50406 whole entry): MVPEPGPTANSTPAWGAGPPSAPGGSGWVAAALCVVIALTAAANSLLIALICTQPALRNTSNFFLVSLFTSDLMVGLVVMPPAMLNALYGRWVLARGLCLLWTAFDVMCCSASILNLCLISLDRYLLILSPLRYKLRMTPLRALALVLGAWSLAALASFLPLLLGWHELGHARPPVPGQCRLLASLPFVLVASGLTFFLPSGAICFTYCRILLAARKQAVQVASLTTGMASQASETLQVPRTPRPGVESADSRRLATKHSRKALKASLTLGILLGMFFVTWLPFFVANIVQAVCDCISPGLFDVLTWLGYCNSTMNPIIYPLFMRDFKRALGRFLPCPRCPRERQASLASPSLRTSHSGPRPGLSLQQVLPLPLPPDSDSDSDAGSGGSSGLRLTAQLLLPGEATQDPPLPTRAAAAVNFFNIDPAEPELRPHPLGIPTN
Method: Compounds of the invention were incubated with 1.5 nM [3H]Lysergic acid diethylamide (LSD) for 120 min at 37° C. […] Receptor proteins were filtered and washed, the filters were then counted to determine [3H]LSD specifically bound. Compounds were screened at 1 μM or lower, using 1% DMSO as vehicle. Biochemical assay results are presented as the percent inhibition of specific binding in Table 4.

| Compound | inhibition at 0.1 µM [1] [%] | inhibition at 0.1 µM [2] [%] | inhibition at 1 µM [3] [%] | inhibition at 0.1 µM [4] [%] | inhibition at 0.1 µM [5] [%] |
| --- | --- | --- | --- | --- | --- |
| CCCC[C@](O)(Cn1c2c(c3cc(Cl)ccc31)CN(C)CC2)c1ccc(F)cc1 [Compound 1-61, (R)-1-(8-Chloro-2-methyl-3,4-dihydro-1H-pyrido[4,3-b]indol-5(2H)-yl)-2-(4-fluorophenyl)hexan-2-ol] | 14 | 1 | 14 | 81 | 68 |
| Cc1ccc2c(c1)c1c(n2CCc2ccc(C)nc2)CCN(CC(F)(F)F)C1 [Compound 1-65, 8-methyl-5-(2-(6-methylpyridin-3-yl)ethyl)-2-(2,2,2-trifluoroethyl)-2,3,4,5-tetrahydro-1H-pyrido[4,3-b]indole] | 4 | -10 | 12 | -10 | -6 |
| CC[C@](O)(Cn1c2c(c3cc(C)ccc31)CN(C)CC2)c1ccc(F)cc1 [Compound 1-60, (R)-1-(2,8-Dimethyl-3,4-dihydro-1H-pyrido[4,3-b]indol-5(2H)-yl)-2-(4-fluorophenyl)butan-2-ol] | 13 | -8 | -14 | 67 | 48 |
| CC[C@](O)(Cn1c2c(c3cc(C)ccc31)CN(C)CC2)c1ccncc1 [Compound 1-63, (R)-1-(2,8-Dimethyl-3,4-dihydro-1H-pyrido[4,3-b]indol-5(2H)-yl)-2-(pyridine-4-yl)butan-2-ol] | -13 | 8 | 14 | 21 | 25 |
| COc1ccc([C@](C)(O)Cn2c3c(c4cc(C)ccc42)CN(C)CC3)cc1 [Compound 1-20, (S)-1-(2,8-Dimethyl-3,4-dihydro-1H-pyrido[4,3-b]indol-5(2H)-yl)-2-(4-methoxyphenyl)propan-2-ol] | 22 | 13 |  | 91 |  |
| CC[C@@](O)(Cn1c2c(c3cc(C)ccc31)CN(C)CC2)c1ccncc1 [Compound 1-62, (S)-1-(2,8-Dimethyl-3,4-dihydro-1H-pyrido[4,3-b]indol-5(2H)-yl)-2-(pyridine-4-yl)butan-2-ol] | 6 | 10 | 9 | 43 | 28 |
